The text below walks through data of PMC7766124, “Improved Cell Selectivity of Pseudin-2 via Substitution in the Leucine-Zipper Motif: In Vitro and In Vivo Antifungal Activity” (Antibiotics, 2020).

Read-outs that look alike come from different tables or passages of the source. No end group written: not given here.

The subject of assay [1] is A. fumigatus. It counts as cell-based, A. fumigatus (KCTC 6145). Conditions: 36 h. The source says:
(§1) Aspergillus flavus (KCTC 6905), A. fumigatus (KCTC 6145), Fusarium moniliforme (KCTC 6149), F. oxysporum (KCTC 16909), C. albicans (KCTC 7270), C. krusei (CCARM 14017), C. parapsilosis (CCARM 14016), C. tropicalis (KCTC 7221), and T. beigelii (KCTC 7707) were obtained from the Korea Collection for Type Cultures (KCTC) and Culture Collection of Antimicrobial Resistant Microbes (CCARM). Mold and yeast fungi were pre-grown on potato dextrose (PD) and yeast extract peptone dextrose (YPD) agars, respectively.
(§2) Antifungal activity of peptides was performed by microtiter plate assays. Fungal conidia from four-day-old molds were collected using 0.08% Triton X-100 (v/v), and pre-cultivated yeast cells were adjusted to 2 × 10^4 spores/mL in 10 mM sodium phosphate buffer (SP, pH 7.2) or 10 mM 2-(N-morpholino)ethanesulfonic acid (MES) buffer (pH 5.5) supplemented with 20% culture medium, followed by addition to peptide solutions (0.25, 0.5, 1, 1.5, 2, 4, 6, 8, 12, 16, 32, 48, and 64 µM) in 96-well microtiter plates. After incubation for 36 h at 28 °C, the hyphal growth of conidia and the proliferation of yeast cells were observed under a light microscope. All assays were performed in triplicate. The MIC values were defined as the lowest concentration of samples that reduced fungal germination (for mold) or cell proliferation (for yeast) by more than 90% [34].

The test system of assay [2] is C. albicans. Type of assay: cell-based, C. albicans (KCTC 7270). Particulars: 36 h.
Source text: as §1, §2

In assay [3] the test system is T. beigelii. Type of assay: cell-based, T. beigelii (KCTC 7707). Particulars: 36 h.
Source text: as §1, §2

Assay [4] relates to F. oxysporum. It counts as cell-based, F. oxysporum (KCTC 16909). Conditions: 36 h.
Source text: as §1, §2

For assay [5], the system named is Candida albicans, C. krusei, C. tropicalis, and Trichosporon beigelii. As to the kind of experiment: Antifungal microtiter plate assay (MIC), range over pathogenic yeasts. It counts as cell-based. Particulars: neutral pH; range over four yeasts. The procedure:
as §2

Assay [6] deals with C. krusei. Type of assay: cell-based, C. krusei (CCARM 14017). Conditions: 36 h.
Source text: as §1, §2

Assay [7] relates to C. parapsilosis. It counts as cell-based, C. parapsilosis (CCARM 14016). Particulars: 36 h.
Source text: as §1, §2

The nature of assay [8]: Calcein leakage from fungus-mimic artificial vesicles. Conditions: fungus-mimic PC/PE/PI/ergosterol vesicles, 20 μM lipid; peptide/lipid molar ratio 0.05; 100% = 0.03% Triton X-100; three independent experiments. The procedure: The permeability of peptides in calcein-entrapped artificial liposomes was assayed by measuring calcein leakage. The desired mixtures of lipids (PC/PE/PI/ergosterol, 5:4:1:2 and PC/CH/SM, 2:1:1, weight ratio) were dissolved in chloroform at 10 mg/mL, dried in a glass tube under nitrogen, and then lyophilized overnight to remove residual solvent. The dried lipid films were resuspended in 1 mL of dye solution (80 mM calcein, 10 mM HEPES buffer, pH 7.2) at 50 °C and vortexed, followed by freeze-thawing for nine cycles and extrusion with polycarbonate filters (0.2-μm pore-size) using an Avanti Mini-Extruder (Avanti Polar Lipids Inc., Alabaster, AL, USA). Free calcein was removed using PD-10 desalting columns (GE Healthcare Life Science, Seoul, Korea). Calcein-entrapped vesicles of 20 μM lipids were incubated with peptides at concentrations of […], 0.02, 0.05, and 0.1 molar ratio (peptide/lipid) and the fluorescence was assessed at 480 (Ex) and 520 (Em) nm using a microtiter SpectraMax M5 reader (Molecular Devices). Complete (100%) release was achieved by the addition of 0.03% Triton X-100 (v/v).

Assay [9] deals with C. tropicalis. As to the kind of experiment: C. tropicalis skin infection mouse model. Type of assay: in vivo, BALB/C female mice. The procedure:
All animal experiments and procedures were performed with the approval of the Institutional Animal Care and Use Committee (IACUC) of Sunchon National University, Korea (SCNU IACUC-2019-10). BALB/C female mice (six weeks old) were obtained from Koatech Co. (Pyongtaek, Gyeonggido, Korea) and divided into three groups (n = 4): control, pseudin-2, and P2-LZ4 groups. The skin on the back of each mouse was shaved 1 h before infection, and the mice were anesthetized by inhalation of 5% (induction) and 2% (maintenance) isoflurane in pure oxygen. Mice were then subjected to subcutaneous infection with 100 µL C. tropicalis (10^7 cells/mL) by injection into the dorsum of each mouse. At 24 h after infection, 100 µL PBS, pseudin-2 (0.1 mg/mL), or P2-LZ4 (0.1 mg/mL) was injected into the same site. At four days after peptide injection, mice were euthanized by CO2 inhalation, and the infected skin tissues were excised, fixed in 4% paraformaldehyde, embedded in paraffin, stained with H&E, and observed by light microscopy.

The test system of assay [10] is F. moniliforme. Type of assay: cell-based, Fusarium moniliforme (KCTC 6149). Particulars: 36 h.
Source text: as §1, §2

The test system of assay [11] is C. tropicalis. Type of assay: cell-based, C. tropicalis (KCTC 7221). Particulars: 36 h.
Source text: as §1, §2

For assay [12], the system named is A. flavus. Type of assay: cell-based, Aspergillus flavus (KCTC 6905). Particulars: 36 h.
Source text: as §1, §2

In assay [13] the test system is C. tropicalis cells. As to the kind of experiment: SYTOX Green uptake (membrane permeability). It counts as cell-based. Particulars: SP buffer pH 7.2, 0.5 μM SYTOX Green, peptides 1-64 µM, monitored 30 min. How it is done:
C. tropicalis cells pre-grown at 28 °C were washed and suspended (2 × 10^6 cells/mL) in SP buffer (pH 7.2). The cells were pre-incubated with SYTOX Green (final concentration of 0.5 μM) for 15 min in the dark, followed by adding two-fold serial dilutions of peptides at concentrations of 1 to 64 µM. The fluorescence intensity was monitored for 30 min at 485 (Ex) and 520 (Em) nm using a microtiter SpectraMax M5 reader (Molecular Devices, San Jose, CA, USA).

Assay [14] concerns C. tropicalis cells. As to the kind of experiment: Mitochondrial superoxide, MitoSOX Red flow cytometry. Type of assay: cell-based. Conditions: peptide at MIC for 8 h. How it is done:
Mitochondrial SOX was measured using MitoSOX Red probe. C. tropicalis cells (2 × 10^4 spores/mL) were treated with samples at the appropriate MIC for 8 h and then stained with MitoSOX Red according to the manufacturer’s instructions. The stained cells were acquired by flow cytometry (Attune NxT Acoustic Focusing Cytometer; ThermoFisher Scientific Co., Eugene, OR, USA) at 561 nm by 10,000 total events.

Consider GLNALKKVAQGIHEAAKLINNHVQ-NH2 [P2-LZ4], for which the MIC in assay [1] (pH 5.5) turned out to be 16 µM; in assay [1] (pH 7.2), 32 µM; in [2] (pH 5.5), 8 µM; in [2] (pH 7.2), 4 µM; in [3] (pH 5.5) it was 1 µM; in assay [3] (pH 7.2), 1.5 µM. For the same substance, the MIC in assay [4] (pH 5.5) was 16 µM; in assay [4] (pH 7.2), 2 µM; in assay [6] (pH 5.5), 8 µM; in assay [6] (pH 7.2), 6 µM; in assay [7] (pH 5.5), > 64 µM; in assay [7] (pH 7.2) it was 48 µM. For the same substance, the MIC is on record as 32 (32) µM in assay [10] (pH 5.5); 32 (32) µM in assay [10] (pH 7.2); 1 µM in assay [11] (pH 5.5); 2 µM in assay [11] (pH 7.2); 16 µM in [12] (pH 5.5); 32 µM in assay [12] (pH 7.2). Also, the “MICs against pathogenic yeast cells” value in assay [5] was 1.5 to 6 µM. The leakage of calcein in assay [8] is given as 80.5%. Further, the “histological evaluation of skin tissues (H&E)” value in assay [9] (100 µL of 0.1 mg/mL peptide s.c. 24 h after infection, tissues taken four days after peptide injection) is “nearly identical to those of the PBS-treated mice”. Moreover, in assay [9] (100 µL of 0.1 mg/mL peptide s.c. 24 h after s.c. infection, monitored seven days, n = 4), the “skin lesions (swelling and redness in the dorsal skin)” value is recorded as “no obvious skin lesions”.
For GLNALKKVKQGKHEAIKLINNHVQ-NH2 [P2-LZ5], the MIC in assay [1] (pH 5.5) is > 64 µM; in assay [1] (pH 7.2), 16 µM; in assay [2] (pH 5.5), 64 µM; in assay [2] (pH 7.2), 32 µM; in assay [3] (pH 5.5), 32 µM; in assay [3] (pH 7.2) it was 8 µM. For the same substance, the MIC in [4] (pH 5.5) was 16 µM; in [4] (pH 7.2), 6 µM; in assay [6] (pH 5.5) it was 16 µM; in [6] (pH 7.2) it was 48 µM; in assay [7] (pH 5.5) it was >64 (>64) µM; in [7] (pH 7.2), >64 (>64) µM. Also, the MIC in [10] (pH 5.5) was 64 (>64) µM; in [10] (pH 7.2), 64 (>64) µM; in assay [11] (pH 5.5), 16 µM; in assay [11] (pH 7.2), 8 µM; in assay [12] (pH 5.5) it was > 64 µM; in assay [12] (pH 7.2), 16 µM. In assay [13], the “SYTOX Green fluorescence intensity” value was “much lower than that in the presence of the other peptides”. The “MitoSOX Red fluorescence (mitochondrial SOX)” value in [14] is “significantly increased”. In addition, the leakage of calcein in assay [8] is given as 33.8%.
